Measurements from patent publication US10072011B2, “Substituted bridged urea analogs as sirtuin modulators” (GlaxoSmithKline Intellectual Property (No.2) Limited, priority 2014, dated 2018).
Where two headings read alike, the source gives them in different places.

Molecular target: T1, SIRT1 (Homo sapiens, UniProt Q96EB6)
T1 sequence (Q96EB6 1-747): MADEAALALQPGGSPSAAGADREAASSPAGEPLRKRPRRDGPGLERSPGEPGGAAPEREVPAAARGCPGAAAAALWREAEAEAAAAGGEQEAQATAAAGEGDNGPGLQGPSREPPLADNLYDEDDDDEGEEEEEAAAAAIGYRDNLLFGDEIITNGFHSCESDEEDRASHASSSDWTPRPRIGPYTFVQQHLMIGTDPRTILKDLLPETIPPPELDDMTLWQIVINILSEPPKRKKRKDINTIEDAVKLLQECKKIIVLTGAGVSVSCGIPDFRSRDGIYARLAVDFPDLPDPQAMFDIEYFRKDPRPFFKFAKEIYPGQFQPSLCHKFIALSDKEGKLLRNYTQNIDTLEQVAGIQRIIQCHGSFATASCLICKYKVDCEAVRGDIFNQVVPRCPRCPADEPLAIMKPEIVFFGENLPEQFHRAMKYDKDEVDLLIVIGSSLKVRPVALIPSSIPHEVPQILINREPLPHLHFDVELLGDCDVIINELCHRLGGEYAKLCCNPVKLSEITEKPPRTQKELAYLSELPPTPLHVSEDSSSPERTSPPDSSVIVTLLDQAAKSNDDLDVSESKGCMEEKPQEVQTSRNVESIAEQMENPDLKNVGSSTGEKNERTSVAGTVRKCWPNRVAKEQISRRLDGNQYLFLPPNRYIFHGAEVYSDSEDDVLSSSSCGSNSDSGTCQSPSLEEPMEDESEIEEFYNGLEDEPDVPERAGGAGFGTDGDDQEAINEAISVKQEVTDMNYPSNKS
Experiment: Trp mass spectrometry assay of SIRT1 activation (Ac-R-H-K-K(Ac)-W-NH2 peptide)
Type: biochemical
Details: for Emax: 25 min, read-out: TRP MAX RESP (percent maximum fold activation)
How it was run: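 N-terminal His-tagged human SIRT1, expressed in BL21(DE3) and purified, was incubated 25 min with an acetylated Trp peptide and NAD plus test compound at varying concentrations, then quenched with formic acid. OAADPR or deacetylated peptide was quantified by mass spectrometry versus compound-free control; EC1.5 is the concentration giving 50% activity increase, with percent maximum activation.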

[1] = Trp peptide 0.5 μM, 120 μM βNAD+, 10 nM SIRT1, 25 min at 25° C., relative to control (100%)
[2] = Trp peptide 0.5 μM, 120 μM βNAD+, 10 nM SIRT1, 25 min at 25° C.

Row | Emax [1] | TRP Activity (EC1.5, concentration of test compound that results in 150% activation of SIRT1) [2] | SMILES | Emax
1 | > 150% | A (EC1.5<1 μM) | O=C(NC[C@H](O)C(F)(F)F)c1ccc2c(n1)N(C(=O)Nc1cc(OC[C@H](O)CO)ccn1)[C@H]1CCN2C1 [Example 91, (4S)—N5-(4-((R)-2,3-dihydroxypropoxy)pyridin-2-yl)-N7-((S)-3,3,3-trifluoro-2-hydroxypropyl)-3,4-dihydro-1,4-methanopyrido[2,3-b][1,4]diazepine-5,7(2H)-dicarboxamide] | –
2 | > 150% | A (EC1.5<1 μM) | C[C@@H](NC(=O)c1ccc2c(n1)N(C(=O)Nc1nccs1)[C@H]1CCN2C1)C(F)(F)F [Example 191, (4S)—N5-(thiazol-2-yl)-N7-((R)-1,1,1-trifluoropropan-2-yl)-3,4-dihydro-1,4-methanopyrido[2,3-b][1,4]diazepine-5,7(2H)-dicarboxamide] | –
3 | > 150% | B (EC1.5 1-25 μM) | O=C(NC1CC1)c1ccc2c(n1)N(C(=O)Nc1ccc(Cl)cn1)[C@H]1CCN2C1 [Example 67, (4S)—N5-(5-chloropyridin-2-yl)-N7-cyclopropyl-3,4-dihydro-1,4-methanopyrido[2,3-b][1,4]diazepine-5,7(2H)-dicarboxamide] | –
4 | > 150% | B (EC1.5 1-25 μM) | O=C(NC1(CO)CC1)c1ccc2c(n1)N(C(=O)Nc1ccccn1)[C@H]1CCN2C1 [Example 17, (4S)—N7-(1-(hydroxymethyl)cyclopropyl)-N5-(pyridin-2-yl)-3,4-dihydro-1,4-methanopyrido[2,3-b][1,4]diazepine-5,7(2H)-dicarboxamide] | –
5 | > 150% | A (EC1.5<1 μM) | CC[C@H](C)NC(=O)c1ccc2c(n1)N(C(=O)Nc1ccccn1)[C@H]1CCN2C1 [Example 26, (4S)—N7-((S)-sec-butyl)-N5-(pyridin-2-yl)-3,4-dihydro-1,4-methanopyrido[2,3-b][1,4]diazepine-5,7(2H)-dicarboxamide] | –
6 | > 150% | B (EC1.5 1-25 μM) | O=C(OCC(F)(F)F)c1ccc2c(n1)N(C(=O)Nc1ccccn1)[C@H]1CCN2C1 [Example 278, (4S)-2,2,2-trifluoroethyl 5-(pyridin-2-ylcarbamoyl)-2,3,4,5-tetrahydro-1,4-methanopyrido[2,3-b][1,4]diazepine-7-carboxylate] | –
7 | > 150% | A (EC1.5<1 μM) | CC(NC(=O)c1ccc2c(n1)N(C(=O)Nc1ccccn1)[C@H]1CCN2C1)C1CC1 (single isomer, unassigned) [Example 100] | –
8 | > 150% | A (EC1.5<1 μM) | Cc1ncc(-c2ccnc(NC(=O)N3c4nc(C(=O)N[C@H](C)C(F)(F)F)ccc4N4CC[C@H]3C4)c2)s1 [Example 148, (4S)—N5-(4-(2-methylthiazol-5-yl)pyridin-2-yl)-N7-((R)-1,1,1-trifluoropropan-2-yl)-3,4-dihydro-1,4-methanopyrido[2,3-b][1,4]diazepine-5,7(2H)-dicarboxamide] | –
9 | < 150% | A (EC1.5<1 μM) | C[C@@H](NC(=O)c1ccc2c(n1)N(C(=O)Nc1cc(-c3cn[nH]c3)ccn1)[C@H]1CCN2C1)C(F)(F)F [Example 321, (4S)—N5-(4-(1H-pyrazol-4-yl)pyridin-2-yl)-N7-((R)-1,1,1-trifluoropropan-2-yl)-3,4-dihydro-1,4-methanopyrido[2,3-b][1,4]diazepine-5,7(2H)-dicarboxamide] | –
10 | > 150% | A (EC1.5<1 μM) | C#C[C@@H](C)NC(=O)c1ccc2c(n1)N(C(=O)Nc1ccccn1)[C@H]1CCN2C1 [Example 105, (4S)—N7-((R)-but-3-yn-2-yl)-N5-(pyridin-2-yl)-3,4-dihydro-1,4-methanopyrido[2,3-b][1,4]diazepine-5,7(2H)-dicarboxamide] | –
11 | < 150% | A (EC1.5<1 μM) | C[C@@H](NC(=O)c1ccc2c(n1)N(C(=O)Nc1cc(NCCO)ccn1)[C@H]1CCN2C1)C(F)(F)F [Example 309, (4S)—N5-(4-((2-hydroxyethyl)amino)pyridin-2-yl)-N7-((R)-1,1,1-trifluoropropan-2-yl)-3,4-dihydro-1,4-methanopyrido[2,3-b][1,4]diazepine-5,7(2H)-dicarboxamide] | –
12 | > 150% | A (EC1.5<1 μM) | C[C@@H](NC(=O)c1ccc2c(n1)N(C(=O)Nc1ccc(OC[C@@H](O)CO)cn1)[C@H]1CCN2C1)C(F)(F)F [Example 153, (4S)—N5-(5-((S)-2,3-dihydroxypropoxy)pyridin-2-yl)-N7-((R)-1,1,1-trifluoropropan-2-yl)-3,4-dihydro-1,4-methanopyrido[2,3-b][1,4]diazepine-5,7(2H)-dicarboxamide] | –
13 | > 150% | A (EC1.5<1 μM) | O=C(N[C@H](CO)C(F)(F)F)c1ccc2c(n1)N(C(=O)Nc1ccccn1)[C@H]1CCN2C1 [Example 16, (4S)—N5-(pyridin-2-yl)-N7-((R)-1,1,1-trifluoro-3-hydroxypropan-2-yl)-3,4-dihydro-1,4-methanopyrido[2,3-b][1,4]diazepine-5,7(2H)-dicarboxamide] | –
14 | > 150% | A (EC1.5<1 μM) | C[C@@H](NC(=O)c1ccc2c(n1)N(C(=O)Nc1ncc3cc[nH]c3n1)[C@H]1CCN2C1)C(F)(F)F [Example 62, (4S)—N5-(7H-pyrrolo[2,3-d]pyrimidin-2-yl)-N7-((R)-1,1,1-trifluoropropan-2-yl)-3,4-dihydro-1,4-methanopyrido[2,3-b][1,4]diazepine-5,7(2H)-dicarboxamide] | –
15 | > 150% | B (EC1.5 1-25 μM) | O=C(N[C@@H]1CC1(F)F)c1ccc2c(n1)N(C(=O)Nc1cnc(OC[C@H](O)CO)cn1)[C@H]1CCN2C1 (single isomer, unassigned) [Example 260] | –
16 | > 150% | B (EC1.5 1-25 μM) | O=C(N[C@H]1C[C@H](O)C1)c1ccc2c(n1)N(C(=O)Nc1ccccn1)[C@H]1CCN2C1 (racemic) [Example 210, (4S)—N7-((1r,3S)-3-hydroxycyclobutyl)-N5-(pyridin-2-yl)-3,4-dihydro-1,4-methanopyrido[2,3-b][1,4]diazepine-5,7(2H)-dicarboxamide] | –
17 | > 150% | B (EC1.5 1-25 μM) | C[C@@H](NC(=O)c1ccc2c(n1)N(C(=O)Nc1ncc(F)cc1F)[C@H]1CCN2C1)C(F)(F)F [Example 239, (4S)—N5-(3,5-difluoropyridin-2-yl)-N7-((R)-1,1,1-trifluoropropan-2-yl)-3,4-dihydro-1,4-methanopyrido[2,3-b][1,4]diazepine-5,7(2H)-dicarboxamide] | –
18 | > 150% | A (EC1.5<1 μM) | Cc1ncc(-c2cc(NC(=O)N3c4nc(C(=O)NCC(F)(F)F)ccc4N4CC[C@H]3C4)ncn2)o1 [Example 169, (4S)—N5-(6-(2-methyloxazol-5-yl)pyrimidin-4-yl)-N7-(2,2,2-trifluoroethyl)-3,4-dihydro-1,4-methanopyrido[2,3-b][1,4]diazepine-5,7(2H)-dicarboxamide] | –
19 | > 150% | A (EC1.5<1 μM) | O=C(N[C@H](CO)C(F)(F)F)c1ccc2c(n1)N(C(=O)Nc1cc3c(cn1)OCCC3)[C@H]1CCN2C1 [Example 159] | –

Row | SMILES | Emax [1] | TRP Activity (EC1.5, concentration of test compound that results in 150% activation of SIRT1) [2] | Emax
20 | Cn1ccc(=O)c(NC(=O)N2c3nc(C(=O)NCC(F)(F)F)ccc3N3CC[C@H]2C3)c1 [Example 185, (4S)—N5-(1-methyl-4-oxo-1,4-dihydropyridin-3-yl)-N7-(2,2,2-trifluoroethyl)-3,4-dihydro-1,4-methanopyrido[2,3-b][1,4]diazepine-5,7(2H)-dicarboxamide] | – | A (EC1.5<1 μM) | > 150%
21 | CN(C)C(=O)c1ccnc(NC(=O)N2c3nc(C(=O)NCC(F)(F)F)ccc3N3CC[C@H]2C3)c1 [Example 259, (4S)—N5-(4-(dimethylcarbamoyl)pyridin-2-yl)-N7-(2,2,2-trifluoroethyl)-3,4-dihydro-1,4-methanopyrido[2,3-b][1,4]diazepine-5,7(2H)-dicarboxamide] | – | B (EC1.5 1-25 μM) | > 150%
